Laboratory results reported in patent US12653190B2, “Heteroaryl-triazole compounds as pesticides” (Bayer Aktiengesellschaft, priority 2020, dated 2026).

How the values were obtained:
Format in all cases: in vivo
[1] = test system: fall armyworm larvae (Spodoptera frugiperda); experiment: Spodoptera frugiperda spray test; details: in Zea mays, 168 h
Description: Spodoptera frugiperda—Spray Test
• Solvent: 78.0 parts by weight acetone • 1.5 parts by weight dimethylformamide • Emulsifier: alkylarylpolyglycol ether
(§1) To produce a suitable preparation of active compound, 1 part by weight of active compound is mixed with the stated amount of solvents and is diluted with water, containing an emulsifier concentration of 1000 ppm, to the desired concentration. Further test concentrations are prepared by dilution with emulsifier containing water.
Maize (Zea mays) leaf sections are sprayed with a preparation of the active ingredient of the desired concentration. Once dry, the leaf sections are infested with fall armyworm larvae (Spodoptera frugiperda). After 7 days mortality in % is determined. 100% means all caterpillars have been killed and 0% means none of the caterpillars have been killed.

[2] = test system: larvae of the banded cucumber beetle (Diabrotica balteata); experiment: Diabrotica balteata spray test; details: 168 h, 100 g/ha (=32 μg/well), after 7 days, wheat seeds, read-out: efficacy (seedling growth)
Description: Diabrotica balteata—Spray Test
(§2) • Solvent: 78.0 parts by weight of acetone • 1.5 parts by weight of dimethylformamide • Emulsifier: alkylarylpolyglycol ether
as §1, with “solvent,” for “solvents”, “and the concentrate” for “and”
Soaked wheat seeds (Triticum aestivum) are placed in a multiple well plate filled with agar and some water and are incubated for 1 day to germinate (5 seeds per well). The germinated wheat seeds are sprayed with a test solution containing the desired concentration of the active ingredient. Afterwards each unit is infected with 10-20 larvae of the banded cucumber beetle (Diabrotica balteata).
After 7 days efficacy in % is determined. 100% means all the seedlings have grown up like in the untreated, uninfected control; 0% means none of the seedlings have grown.

[3] = test system: larvae of the southern green stink bug (Nezara viridula); experiment: Nezara viridula spray test; details: 96 h, after 4 days, barley plants
Description: Nezara viridula—Spray Test
as §2
as §1, with “solvent,” for “solvents”, “and the concentrate” for “and”
Barley plants (Hordeum vulgare) are sprayed with a test solution containing the desired concentration of the active ingredient and are infested with larvae of the southern green stink bug (Nezara viridula).
After 4 days mortality in % is determined. 100% means all the stink bugs have been killed; 0% means none of the stink bugs have been killed.

[4] = test system: adult engorged female ticks (Rhipicephalus microplus); experiment: Rhipicephalus (Boophilus) microplus injection test; details: 168 h, egg deposition monitored after 7 days, read-out: efficacy (infertile eggs); for pest or weed control at 4 µg/tick: 4 μg/tick injected; for pest or weed control at 20 µg/tick: 20 μg/tick injected
Description: Rhipicephalus (Boophilus) microplus—Iniectiontest
• Solvent: dimethyl sulfoxide
To produce a suitable preparation of active compound, 10 mg of active compound are dissolved in 0.5 mL solvent, and the concentrate is diluted with solvent to the desired concentration.
Five adult engorged female ticks (Rhipicephalus microplus) are injected with 1 μL compound solution into the abdomen. The ticks are transferred into replica plates and incubated in a climate chamber.
After 7 days egg deposition of fertile eggs is monitored. Eggs where fertility is not visible are stored in a climate chamber till hatching after about 42 days. An efficacy of 100% means all eggs are infertile; 0% means all eggs are fertile.

Row | Compound | mortality at 100 g/ha [1] | pest or weed control at 32 µg/disc, 100 g/ha [2] | further results
1 | C[C@H](NC(=O)c1cc(Cl)cc(C(=O)C2CC2)c1)c1ncnn1-c1ncc(C#N)s1 [Example I-83] | 100% | 100% | 
2 | Cc1nc([C@H](C)NC(=O)c2cc(Cl)nc(C(C)(C)C#N)c2)n(-c2ncc(C#N)s2)n1 [Example I-70] | 100% | 100% | mortality at 500 g/ha [3]: 100%
3 | C[C@H](NC(=O)c1cc(OC(F)(F)F)cc(C(C)(C)C#N)c1)c1nc(C2CC2)nn1-c1cc(C#N)ncn1 [Example I-76] | 100% | 100% | 
4 | C[C@H](NC(=O)c1cc(C(C)(C)C#N)cc(S(C)(=O)=O)c1)c1nc(C2CC2)nn1-c1ncc(C#N)s1 [Example I-93] | 100% | 80% | 
5 | C[C@H](NC(=O)c1cc(C(C)(C)C#N)cc(S(C)(=O)=O)c1)c1ncnn1-c1ncc(C#N)s1 [Example I-55] | 100% |  | mortality at 100 g/ha ([3]; 100 g/ha): 90%; mortality at 500 g/ha [3]: 90%
6 | Cc1nc([C@H](C)NC(=O)c2cc(OCc3ccc(Cl)cc3)cc(C(F)(F)F)c2)n(-c2ccc(C#N)cn2)n1 [Example I-20, 3-[(4-Chlorobenzyl)oxy]-N-{(1S)-1-[1-(5-cyanopyridin-2-yl)-3-methyl-1H-1,2,4-triazol-5-yl]ethyl}-5-(trifluoromethyl)benzamide] |  |  | pest or weed control at 4 µg/tick [4]: 100%
7 | C[C@H](NC(=O)c1cc(Br)cc(OC(C)(C)C#N)c1)c1ncnn1-c1cc(C#N)ncn1 [Example I-85] | 100% |  | 
8 | Cc1nc([C@H](C)NC(=O)c2cc(Br)cc(C(F)(F)c3ccc(F)cc3)c2)n(-c2ncc(C#N)s2)n1 [Example I-79] | 100% | 100% | 
9 | C[C@H](NC(=O)c1cc(OC(C)(C)C#N)cc(C2CC2)c1)c1ncnn1-c1ncc(C#N)s1 [Example I-89] |  | 100% | 
10 | C[C@H](NC(=O)c1cc(Br)cc(OCC2CC2(F)F)c1)c1ncnn1-c1ncc(C#N)s1 (stereo partly shown) [Example I-63] |  | 100% | 
11 | C[C@H](NC(=O)c1cc(OC2CC2)cc(OC(F)(F)F)c1)c1ncnn1-c1cc(C#N)ncn1 [Example I-87] | 100% | 80% | 
12 | C[C@H](NC(=O)c1cc(Cl)nc(C(C)(C)C#N)c1)c1nc(C2CC2)nn1-c1ncc(C#N)s1 [Example I-69] | 100% | 100% | 
13 | C[C@H](NC(=O)c1cc(Br)cc(OCC2CC2(Cl)Cl)c1)c1ncnn1-c1ncc(C#N)s1 (stereo partly shown) [Example I-62] |  | 100% | 
14 | Cc1nc([C@H](C)NC(=O)c2cc(OCc3ccccc3)cc(C(F)(F)F)c2)n(-c2ccc(C#N)cn2)n1 [Example I-18, 3-(Benzyloxy)-N-{(1S)-1-[1-(5-cyanopyridin-2-yl)-3-methyl-1H-1,2,4-triazol-5-yl]ethyl}-5-(trifluoromethyl)benzamide] |  | 100% | pest or weed control at 4 µg/tick [4]: 100%
15 | Cc1nc([C@H](C)NC(=O)c2cc(OC(C)(C)C#N)cc(C3CC3)c2)n(-c2ncc(C#N)s2)n1 [Example I-90] |  | 100% | 
16 | C[C@H](NC(=O)c1cc(Br)cc(C(F)(F)c2ccc(F)cc2)c1)c1ncnn1-c1ncc(C#N)s1 [Example I-78] | 100% | 100% | 
17 | C[C@H](NC(=O)c1cc(Br)cc(OC(C)(C)C#N)c1)c1ncnn1-c1cnc(C#N)cn1 [Example I-84] | 100% |  | 
18 | C[C@H](NC(=O)c1cc(CC#N)cc(OC(F)(F)F)c1)c1ncnn1-c1cnc(C#N)cn1 [Example I-57] | 100% |  | 

Row | Compound | mortality at 100 g/ha [1] | pest or weed control at 32 µg/disc, 100 g/ha [2] | further results
19 | Cc1nc([C@H](C)NC(=O)c2cc(OC3CC3)cc(OC(F)(F)F)c2)n(-c2ncc(C#N)s2)n1 [Example I-88] | 100% | 100% | 
20 | C[C@H](NC(=O)c1cc(OC2CC2)cc(OC(F)(F)F)c1)c1ncnn1-c1cnc(C#N)cn1 [Example I-86] | 100% | 100% | 
21 | C[C@H](NC(=O)c1cc(Br)cc(C(F)(F)c2ccc(F)cc2)c1)c1ncnn1-c1cnc(C#N)cn1 [Example I-77] | 100% | 100% | 
22 | Cc1nc([C@H](C)NC(=O)c2cc(OCc3ccccc3Cl)cc(C(F)(F)F)c2)n(-c2ccc(C#N)cn2)n1 [Example I-16, 3-[(2-Chlorobenzyl)oxy]-N-{(1S)-1-[1-(5-cyanopyridin-2-yl)-3-methyl-1H-1,2,4-triazol-5-yl]ethyl}(trifluoromethyl)benzamide] |  |  | pest or weed control at 4 µg/tick [4]: 100%; pest or weed control at 20 µg/tick [4]: 100%
23 | C[C@H](NC(=O)c1cc(Cl)cc(C(=O)C2CC2)c1)c1ncnn1-c1cc(C#N)ncn1 [Example I-81] | 100% | 100% | 
24 | C[C@H](NC(=O)c1cc(Cl)nc(C(C)(C)C#N)c1)c1ncnn1-c1cc(C#N)ncn1 [Example I-75] | 100% | 100% | mortality at 500 g/ha [3]: 100%
25 | C[C@H](NC(=O)c1cc(Br)cc(OC2CC2)c1)c1ncnn1-c1ncc(C#N)s1 [Example I-49] | 100% | 100% | 
26 | C[C@H](NC(=O)c1cc(OC2CC2)cc(OC(F)(F)F)c1)c1ncnn1-c1ncc(C#N)s1 [Example I-64] | 100% | 100% | mortality at 500 g/ha [3]: 100%
27 | Cc1nc([C@H](C)NC(=O)c2cc(OC(C)c3cccc(Cl)c3)cc(C(F)(F)F)c2)n(-c2ccc(C#N)cn2)n1 (stereo partly drawn) [Example I-12, 3-[1-(3-Chlorophenyl)ethoxy]-N-{(1S)-1-[1-(5-cyanopyridin-2-yl)-3-methyl-1H-1,2,4-triazol-5-yl]ethyl}-5-(trifluoromethyl)benzamide] |  |  | pest or weed control at 4 µg/tick [4]: 100%; pest or weed control at 20 µg/tick [4]: 100%
28 | CC(=O)Oc1cc(Cl)cc(C(=O)N[C@@H](C)c2ncnn2-c2ccc(C#N)cn2)c1 [Example I-11] |  |  | pest or weed control at 4 µg/tick [4]: 80%; pest or weed control at 20 µg/tick [4]: 80%
29 | C[C@H](NC(=O)c1cc(Br)cc(C(F)(F)c2ccc(F)cc2)c1)c1ncnn1-c1cc(C#N)ncn1 [Example I-80] | 100% | 100% | 
30 | Cc1nc([C@H](C)NC(=O)c2cc(Cl)cc(C(=O)C3CC3)c2)n(-c2ncc(C#N)s2)n1 [Example I-82] | 100% | 100% | 
31 | Cc1nc([C@H](C)NC(=O)c2cc(OC(C)c3ccccc3Cl)cc(C(F)(F)F)c2)n(-c2ccc(C#N)cn2)n1 (stereo partly drawn) [Example I-14, 3-[1-(2-Chlorophenyl)ethoxy]-N-{(1S)-1-[1-(5-cyanopyridin-2-yl)-3-methyl-1H-1,2,4-triazol-5-yl]ethyl}-5-(trifluoromethyl)benzamide] |  |  | pest or weed control at 4 µg/tick [4]: 100%; pest or weed control at 20 µg/tick [4]: 100%
32 | Cc1nc([C@H](C)NC(=O)c2cc(O)cc(C(F)(F)F)c2)n(-c2ccc(C#N)cn2)n1 [Example I-47, N-{(1S)-1-[1-(5-Cyanopyridin-2-yl)-3-methyl-1H-1,2,4-triazol-5-yl]ethyl}-3-hydroxy-5-(trifluoromethyl)benzamide] |  |  | pest or weed control at 4 µg/tick [4]: 100%; pest or weed control at 20 µg/tick [4]: 100%
33 | C[C@H](NC(=O)c1cc(OC(C)(C)C#N)cc(C2CC2)c1)c1ncnn1-c1cc(C#N)ncn1 [Example I-92] | 100% |  | 
34 | Cc1nc([C@H](C)NC(=O)c2cc(OCc3cccc(Cl)c3)cc(C(F)(F)F)c2)n(-c2ccc(C#N)cn2)n1 [Example I-13, 3-[(3-Chlorobenzyl)oxy]-N-{(1S)-1-[1-(5-cyanopyridin-2-yl)-3-methyl-1H-1,2,4-triazol-5-yl]ethyl}-5-(trifluoromethyl)benzamide] |  | 100% | pest or weed control at 4 µg/tick [4]: 80%; pest or weed control at 20 µg/tick [4]: 100%
35 | C[C@H](NC(=O)c1cc(Cl)cc(CC#N)c1)c1ncnn1-c1ncc(C#N)s1 [Example I-50] |  | 100% | 
36 | C[C@H](NC(=O)c1cc(OC(F)(F)F)cc(C(C)(C)C#N)c1)c1nc(C2CC2)nn1-c1ncc(C#N)s1 [Example I-67] | 100% | 100% | 
